Here are results for seven cell lines from the supplement of paper PMC10307832.

Common to all, as to assay: relative viability (nuclei count vs DMSO), 5 days (fraction); higher = more cells survive
Compound in the experiment “Afatinib + Luminespib”: CN(C)C/C=C/C(=O)Nc1cc2c(Nc3ccc(F)c(Cl)c3)ncnc2cc1O[C@H]1CCOC1 [Afatinib] + CCNC(=O)c1noc(-c2cc(C(C)C)c(O)cc2O)c1-c1ccc(CN2CCOCC2)cc1 [Luminespib] (partner 0.01 µM)
The gist of the method: (§1)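 Values are medians from duplicate plates. Each reflects relative viability, defined as the nuclei count of treated wells over that of vehicle wells. Lung cancer cell lines in 1536-well plates were pin-tool dosed one day after seeding with one drug alone or with a fixed anchor-drug dose plus five library-drug doses (not always all listed) in √10 steps, then fixed, stained and imaged at 4× after 5 days.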

Compound in the experiment “Afatinib + Foretinib”: CN(C)C/C=C/C(=O)Nc1cc2c(Nc3ccc(F)c(Cl)c3)ncnc2cc1O[C@H]1CCOC1 [Afatinib] + COc1cc2c(Oc3ccc(NC(=O)C4(C(=O)Nc5ccc(F)cc5)CC4)cc3F)ccnc2cc1OCCCN1CCOCC1 [Foretinib] (partner 0.25 µM)
A digest of the protocol: as §1

Compound in the experiment “Afatinib + Dasatinib”: CN(C)C/C=C/C(=O)Nc1cc2c(Nc3ccc(F)c(Cl)c3)ncnc2cc1O[C@H]1CCOC1 [Afatinib] + Cc1nc(Nc2ncc(C(=O)Nc3c(C)cccc3Cl)s2)cc(N2CCN(CCO)CC2)n1 [Dasatinib] (partner 0.075 µM)
A digest of the protocol:
as §1

Compound in the experiment “Afatinib + Decitabine”: CN(C)C/C=C/C(=O)Nc1cc2c(Nc3ccc(F)c(Cl)c3)ncnc2cc1O[C@H]1CCOC1 [Afatinib] + Nc1ncn([C@H]2C[C@H](O)[C@@H](CO)O2)c(=O)n1 [Decitabine] (partner 2 µM)
The gist of the method: as §1

For the cell line PC-3 [JPC-3], the relative viability with Afatinib + Luminespib (first compound 0.005 µM) stood at 0.54; with Afatinib + Luminespib (first compound 0.01581 µM), 0.402; in the experiment with Afatinib + Luminespib (first compound 0.05 µM), 0.445; in the experiment with Afatinib + Luminespib (first compound 0.1581 µM), 0.277; with Afatinib + Luminespib (first compound 0.5 µM), 0.415; in the experiment with Afatinib + Foretinib (first compound 0.005 µM), 0.472. Also, the relative viability amounted to 0.508 with Afatinib + Foretinib (first compound 0.01581 µM); 0.42 with Afatinib + Foretinib (first compound 0.05 µM); 0.388 with Afatinib + Foretinib (first compound 0.1581 µM); 0.343 with Afatinib + Foretinib (first compound 0.5 µM); 0.46 with Afatinib + Dasatinib (first compound 0.005 µM); 0.339 with Afatinib + Dasatinib (first compound 0.01581 µM). The relative viability amounted to 0.286 with Afatinib + Dasatinib (first compound 0.05 µM); 0.25 in the experiment with Afatinib + Dasatinib (first compound 0.1581 µM); 0.33 with Afatinib + Dasatinib (first compound 0.5 µM); 0.564 with Afatinib + Decitabine (first compound 0.005 µM); 0.52 with Afatinib + Decitabine (first compound 0.01581 µM); 0.553 in the experiment with Afatinib + Decitabine (first compound 0.05 µM). In addition, the relative viability with Afatinib + Decitabine (first compound 0.1581 µM) is 0.449; with Afatinib + Decitabine (first compound 0.5 µM), 0.492.

For the cell line PC-14, the relative viability with Afatinib + Luminespib (first compound 0.005 µM) is 0.152; with Afatinib + Luminespib (first compound 0.01581 µM), 0.115; with Afatinib + Luminespib (first compound 0.05 µM), 0.19; in the experiment with Afatinib + Luminespib (first compound 0.1581 µM), 0.126; with Afatinib + Luminespib (first compound 0.5 µM), 0.144; with Afatinib + Foretinib (first compound 0.005 µM), 0.45. For the same cell line, the relative viability with Afatinib + Foretinib (first compound 0.01581 µM) amounted to 0.149; with Afatinib + Foretinib (first compound 0.05 µM), 0.184; in the experiment with Afatinib + Foretinib (first compound 0.1581 µM), 0.179; with Afatinib + Foretinib (first compound 0.5 µM), 0.183; in the experiment with Afatinib + Dasatinib (first compound 0.005 µM) it was 0.0312; in the experiment with Afatinib + Dasatinib (first compound 0.01581 µM) it was 0.0316. Moreover, the relative viability with Afatinib + Dasatinib (first compound 0.05 µM) was found to be 0.0366; in the experiment with Afatinib + Dasatinib (first compound 0.1581 µM), 0.0312; in the experiment with Afatinib + Dasatinib (first compound 0.5 µM), 0.0453; in the experiment with Afatinib + Decitabine (first compound 0.005 µM) it was 0.14; with Afatinib + Decitabine (first compound 0.01581 µM), 0.17; with Afatinib + Decitabine (first compound 0.05 µM) it was 0.137. The relative viability amounted to 0.171 with Afatinib + Decitabine (first compound 0.1581 µM) and 0.218 in the experiment with Afatinib + Decitabine (first compound 0.5 µM).

For the cell line RERF-LC-KJ, the relative viability was 1.19 with Afatinib + Luminespib (first compound 0.005 µM); 1.11 with Afatinib + Luminespib (first compound 0.01581 µM); 1.19 with Afatinib + Luminespib (first compound 0.05 µM); 1.1 with Afatinib + Luminespib (first compound 0.1581 µM); 1.08 in the experiment with Afatinib + Luminespib (first compound 0.5 µM); 0.844 with Afatinib + Foretinib (first compound 0.005 µM). Also, the relative viability was found to be 0.86 in the experiment with Afatinib + Foretinib (first compound 0.01581 µM); 0.82 in the experiment with Afatinib + Foretinib (first compound 0.05 µM); 0.8 with Afatinib + Foretinib (first compound 0.1581 µM); 0.794 with Afatinib + Foretinib (first compound 0.5 µM); 0.663 in the experiment with Afatinib + Dasatinib (first compound 0.005 µM); 0.662 with Afatinib + Dasatinib (first compound 0.01581 µM). Besides, the relative viability in the experiment with Afatinib + Dasatinib (first compound 0.05 µM) came out at 0.736; in the experiment with Afatinib + Dasatinib (first compound 0.1581 µM) it was 0.61; in the experiment with Afatinib + Dasatinib (first compound 0.5 µM), 0.616; in the experiment with Afatinib + Decitabine (first compound 0.005 µM), 0.646; in the experiment with Afatinib + Decitabine (first compound 0.01581 µM), 0.613; in the experiment with Afatinib + Decitabine (first compound 0.05 µM), 0.673. In addition, the relative viability was found to be 0.501 in the experiment with Afatinib + Decitabine (first compound 0.1581 µM) and 0.635 with Afatinib + Decitabine (first compound 0.5 µM).

In the case of SK-LU-1, the relative viability with Afatinib + Luminespib (first compound 0.005 µM) was 0.19; with Afatinib + Luminespib (first compound 0.01581 µM) it was 0.206; with Afatinib + Luminespib (first compound 0.05 µM), 0.233; with Afatinib + Luminespib (first compound 0.1581 µM), 0.193; in the experiment with Afatinib + Luminespib (first compound 0.5 µM), 0.193; with Afatinib + Foretinib (first compound 0.005 µM), 0.856. Moreover, the relative viability was 0.833 with Afatinib + Foretinib (first compound 0.01581 µM); 0.878 with Afatinib + Foretinib (first compound 0.05 µM); 0.764 with Afatinib + Foretinib (first compound 0.1581 µM); 0.845 with Afatinib + Foretinib (first compound 0.5 µM); 0.179 with Afatinib + Dasatinib (first compound 0.005 µM); 0.203 in the experiment with Afatinib + Dasatinib (first compound 0.01581 µM). Besides, the relative viability with Afatinib + Dasatinib (first compound 0.05 µM) is 0.211; with Afatinib + Dasatinib (first compound 0.1581 µM), 0.175; with Afatinib + Dasatinib (first compound 0.5 µM), 0.222; with Afatinib + Decitabine (first compound 0.005 µM) it was 0.641; in the experiment with Afatinib + Decitabine (first compound 0.01581 µM), 0.674; with Afatinib + Decitabine (first compound 0.05 µM), 0.661. In addition, the relative viability is 0.621 with Afatinib + Decitabine (first compound 0.1581 µM) and 0.619 with Afatinib + Decitabine (first compound 0.5 µM).

Turning to SK-MES-1, the relative viability is 0.476 with Afatinib + Luminespib (first compound 0.005 µM); 0.399 with Afatinib + Luminespib (first compound 0.01581 µM); 0.481 in the experiment with Afatinib + Luminespib (first compound 0.05 µM); 0.277 in the experiment with Afatinib + Luminespib (first compound 0.1581 µM); 0.49 in the experiment with Afatinib + Luminespib (first compound 0.5 µM); 0.905 with Afatinib + Foretinib (first compound 0.005 µM). Also, the relative viability stood at 0.552 with Afatinib + Foretinib (first compound 0.01581 µM); 0.596 in the experiment with Afatinib + Foretinib (first compound 0.05 µM); 0.372 in the experiment with Afatinib + Foretinib (first compound 0.1581 µM); 0.448 with Afatinib + Foretinib (first compound 0.5 µM); 0.247 in the experiment with Afatinib + Dasatinib (first compound 0.005 µM); 0.203 in the experiment with Afatinib + Dasatinib (first compound 0.01581 µM). Further, the relative viability in the experiment with Afatinib + Dasatinib (first compound 0.05 µM) turned out to be 0.18; with Afatinib + Dasatinib (first compound 0.1581 µM) it was 0.139; with Afatinib + Dasatinib (first compound 0.5 µM), 0.16; with Afatinib + Decitabine (first compound 0.005 µM), 0.27; with Afatinib + Decitabine (first compound 0.01581 µM), 0.322; with Afatinib + Decitabine (first compound 0.05 µM), 0.309. Also, the relative viability turned out to be 0.312 with Afatinib + Decitabine (first compound 0.1581 µM) and 0.316 with Afatinib + Decitabine (first compound 0.5 µM).

Take SW 1573: the relative viability with Afatinib + Luminespib (first compound 0.005 µM) worked out at 0.141; with Afatinib + Luminespib (first compound 0.01581 µM), 0.262; with Afatinib + Luminespib (first compound 0.05 µM) it was 0.247; with Afatinib + Luminespib (first compound 0.1581 µM), 0.214; with Afatinib + Luminespib (first compound 0.5 µM), 0.214; with Afatinib + Foretinib (first compound 0.005 µM), 0.999. Also, the relative viability was determined as 0.924 in the experiment with Afatinib + Foretinib (first compound 0.01581 µM); 0.898 with Afatinib + Foretinib (first compound 0.05 µM); 0.861 with Afatinib + Foretinib (first compound 0.1581 µM); 0.877 with Afatinib + Foretinib (first compound 0.5 µM); 0.355 with Afatinib + Dasatinib (first compound 0.005 µM); 0.438 in the experiment with Afatinib + Dasatinib (first compound 0.01581 µM). The relative viability with Afatinib + Dasatinib (first compound 0.05 µM) stood at 0.528; in the experiment with Afatinib + Dasatinib (first compound 0.1581 µM), 0.475; with Afatinib + Dasatinib (first compound 0.5 µM) it was 0.417; with Afatinib + Decitabine (first compound 0.005 µM), 0.434; in the experiment with Afatinib + Decitabine (first compound 0.01581 µM) it was 0.422; with Afatinib + Decitabine (first compound 0.05 µM) it was 0.542. Further, the relative viability amounted to 0.497 with Afatinib + Decitabine (first compound 0.1581 µM) and 0.528 with Afatinib + Decitabine (first compound 0.5 µM).

UMC-11: the relative viability with Afatinib + Luminespib (first compound 0.005 µM) amounted to 1.03; with Afatinib + Luminespib (first compound 0.01581 µM), 1.08; in the experiment with Afatinib + Luminespib (first compound 0.05 µM), 1.06; in the experiment with Afatinib + Luminespib (first compound 0.1581 µM), 1.01; with Afatinib + Luminespib (first compound 0.5 µM), 0.944; with Afatinib + Foretinib (first compound 0.005 µM), 0.992. The relative viability with Afatinib + Foretinib (first compound 0.01581 µM) was 1.03; in the experiment with Afatinib + Foretinib (first compound 0.05 µM), 1.08; with Afatinib + Foretinib (first compound 0.1581 µM), 1.02; in the experiment with Afatinib + Foretinib (first compound 0.5 µM), 0.996; with Afatinib + Dasatinib (first compound 0.005 µM), 0.657; with Afatinib + Dasatinib (first compound 0.01581 µM) it was 0.439. In addition, the relative viability was found to be 0.436 with Afatinib + Dasatinib (first compound 0.05 µM); 0.419 with Afatinib + Dasatinib (first compound 0.1581 µM); 0.419 with Afatinib + Dasatinib (first compound 0.5 µM); 0.664 with Afatinib + Decitabine (first compound 0.005 µM); 0.602 with Afatinib + Decitabine (first compound 0.01581 µM); 0.584 in the experiment with Afatinib + Decitabine (first compound 0.05 µM). For the same cell line, the figures for the relative viability in the experiment with Afatinib + Decitabine (first compound 0.1581 µM) and with Afatinib + Decitabine (first compound 0.5 µM) were 0.554 and 0.63, respectively.
